Values of other authors in US5889008A, “Substituted 1-indolylpropyl-4-phenethylpiperazadine derivatives” (Merck Sharp & Dohme, Ltd., priority 1995, dated 1999).

Legend:
[1] = system: humans; conditions: therapeutic doses
[2] = system: human 5-HT1Dα and 5-HT1Dβ receptor subtypes; conditions: cf. WO-A-91/17174, Table 1

## CNS(=O)(=O)Cc1ccc2[nH]cc(CCN(C)C)c2c1 [sumatriptan]
[1]
  adverse cardiovascular events: certain adverse cardiovascular events
[2]
  discrimination between the human 5-HT1Dα and 5-HT1Dβ receptor subtypes: barely discriminates between the human 5-HT1Dα and 5-HT1Dβ receptor subtypes
